The record followed here is patent US7977360B2, “Benzo[d]isoxazol-3-yl-amine compounds and their use as vanilloid receptor ligands” (Gruenenthal GmbH, priority 2005, dated 2011).

This experiment has as its target T1, vanilloid receptor 1 (VR1/TRPV1 receptor) (Rattus norvegicus, UniProt O35433).
T1 construct: endogenous in cells; host or cells: primary cultured dorsal root ganglion cells from rats
Briefly: Functional study on vanilloid receptor 1 (VR1/TRPV1), FLIPR Ca2+ inflow assay in rat dorsal root ganglia cells (method I). The class given is cell-based. To be noted: compound 10 μM, rat DRG cells; for inhibition at 10 µM: then 100 nM capsaicin after 5 min, per method % inhibition vs maximum achievable inhibition with 10 μM capsaicin, read-out: rVR1 [10 μM] inhibition; for rVR1 [10 μM] stimulation: per method % activation in relation to the Ca2+ signal after 10 μM capsaicin. The source says:
I. Functional Study on Vanilloid Receptor 1 (VR1/TRPV1 Receptor)
The agonistic or antagonistic effect of the substances to be studied on vanilloid receptor 1 (VR1/TRPV1) of the rat species can be determined with the following assay. According to this assay, the Ca^2+ inflow through the receptor canal is quantified with the help of a Ca^2+-sensitive dye (type Fluo-4, Molecular Probes Europe BV, Leiden Netherlands) in the Fluorescent Imaging Plate Reader (FLIPR, Molecular Devices, Sunnyvale, USA).
Complete medium: 50 mL HAMS F12 Nutrient Mixture (Gibco Invitrogen GmbH, Karlsruhe, Germany) with • 10% by vol. FCS (fetal calf serum, Gibco Invitrogen GmbH, Karlsruhe, Germany, heat-inactivated); • 2 mM L-glutamine (Sigma, Munich, Germany); • 1% by weight AA solution (antibiotic/antimycotic solution, PAA, Pasching, Austria) and 25 ng/ml medium NGF (2.5 S, Gibco Invitrogen GmbH, Karlsruhe, Germany)
Cell culture plate: Poly-D-Lysin-coated, 96 well black/clear plates (BD Biosciences, Heidelberg, Germany) are additionally coated with laminin (Gibco Invitrogen GmbH, Karlsruhe, Germany) by diluting laminin to a concentration of […] with PBS (Ca—Mg-free PBS, Gibco Invitrogen GmbH, Karlsruhe, Germany). Aliquots with a concentration of 100 μg/mL of laminin are removed and stored at −20° C. The aliquots are diluted with PBS in a ratio of 1:10 to 10 μg/mL of laminin and respectively 50 μL of the solution is pipetted into a recess of the cell culture plate. Die cell culture plates are incubated for at least two hours at 37° C., the remaining solutions is filtered off by suction and the recesses are each washed twice with PBS. The coated cell culture plates are stored with the remaining PBS and this is only removed directly before the addition of the cells.
The spinal column is removed from decapitated rats and this is placed directly in a cold HBSS buffer (Hank's buffered saline solution, Gibco Invitrogen GmbH, Karlsruhe, Germany), located in an ice bath, to which is added 1% by vol. (percent by volume) of an AA solution (antibiotic/antimycotic solution, PM, Pasching, Austria). The spinal column is divided longitudinally and removed from the vertebral canal together with fascia. The dorsal root ganglia (DRGs) are subsequently removed and in turn stored in cold HBSS buffer to which is added 1% by vol. of an AA solution. The DRGs which have been made completely free of blood residues and spinal nerves are transported in each case into 500 μL cold collagenase type 2 (PAA, Pasching, Austria) and incubated for 35 minutes at 37° C. […]
The DRGs are each multiply suspended, drawn by means of a syringe through cannulas no. […] The resultant pellet is respectively received in 250 μL complete medium and the cell number determined. […]

The structures appear in SMILES notation.

T1 sequence (O35433 whole entry): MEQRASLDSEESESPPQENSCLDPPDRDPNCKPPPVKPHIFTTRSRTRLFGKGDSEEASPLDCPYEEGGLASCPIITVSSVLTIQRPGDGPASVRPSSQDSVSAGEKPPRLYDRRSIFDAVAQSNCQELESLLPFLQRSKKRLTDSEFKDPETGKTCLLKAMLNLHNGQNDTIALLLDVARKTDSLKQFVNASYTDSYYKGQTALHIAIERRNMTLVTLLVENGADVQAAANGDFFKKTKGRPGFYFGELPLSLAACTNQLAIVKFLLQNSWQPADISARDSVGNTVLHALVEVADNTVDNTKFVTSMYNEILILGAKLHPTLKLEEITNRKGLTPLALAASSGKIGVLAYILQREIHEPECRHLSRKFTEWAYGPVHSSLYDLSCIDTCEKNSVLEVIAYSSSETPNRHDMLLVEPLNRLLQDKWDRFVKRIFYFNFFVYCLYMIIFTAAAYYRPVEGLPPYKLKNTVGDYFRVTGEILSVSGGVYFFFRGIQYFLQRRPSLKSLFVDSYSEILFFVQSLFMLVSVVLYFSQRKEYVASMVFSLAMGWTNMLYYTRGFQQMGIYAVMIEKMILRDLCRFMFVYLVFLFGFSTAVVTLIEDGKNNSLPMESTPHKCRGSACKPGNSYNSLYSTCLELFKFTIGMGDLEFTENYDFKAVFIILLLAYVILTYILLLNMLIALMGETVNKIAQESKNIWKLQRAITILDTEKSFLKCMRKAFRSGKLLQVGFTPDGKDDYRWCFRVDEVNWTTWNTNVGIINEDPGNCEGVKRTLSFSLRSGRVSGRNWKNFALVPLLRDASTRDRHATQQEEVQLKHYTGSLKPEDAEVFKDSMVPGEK

Take `Cc1cccnc1-c1ccc2c(NCc3ccc(C(C)(C)C)cc3)noc2c1` [Compound 10, (4-tert-butyl-benzyl)-[6-(3-methyl-pyridine-2-yl)-benzo[d]isoxazol-3-yl]-amine]: the inhibition at 10 µM amounted to 99% and the rVR1 [10 μM] stimulation worked out at 29%.
The like results for `CC(C)(C)c1ccc(CNc2noc3cc(-c4ccccn4)ccc23)cc1` [Compound 9, (4-tert-butyl-benzyl)-(6-pyridine-2-yl-benzo[d]isoxazol-3-yl)-amine] were, in that order, 65% and 0%.

The inhibition is the share of the control response that was lost under treatment.
